# Results: patent US10441663B2, “Methods for treating cancer” (Bicycle Therapeutics Limited, priority 2016, dated 2019)
# *1 amine or outer side, *2 acyl side, *3 side chain or, on linkers, in order; H or OH if unused. Where a SMILES comes first, the peptide text is derived from it. Bridges are numbered along the chain shown (N, C = ends). [ ]: non-standard residue; d: D form. The star is where a group is joined. X1 = COc1cc2cc(c1Cl)N(C)C(=O)C[C@H](OC(=O)[C@H](C)N(C)C(=O)CCSSC(C)CCC(=O)*)[C@]1(C)O[C@H]1[C@H](C)[C@@H]1C[C@@](O)(NC(=O)O1)[C@H](OC)/C=C/C=C(\C)C2; 1Nal = N[C@@H](Cc1cccc2ccccc12)C(=O)O; TBMB = c1c(C[*:1])cc(C[*:3])cc1C[*:2]; Tle = CC(C)(C)[C@H](N)C(=O)O; βAla = NCCC(=O)O; Sar = CNCC(=O)O
# Tests used:
# [1] = tested on: RPMI2650 xenograft; test: In vivo efficacy of BT1718 in RPMI2650 xenograft; set-up: species or system Mus Musculus; key to Best response at 10 mg/kg: CR complete response; PR partial response
# Description: (§1) The objective of this study was to evaluate the in vivo anti-tumor efficacy of BT1718in treatment of HT1080, NCI-H292, NCI-H1975, MDA-MB-231, HCC1806, RPMI2650, HCT-15, HT-29 and SNU-16 xenograft in BALB/c nude mice.
# (§2) The HT1080, NCI-H292, NCI-H1975, MDA-MB-231, HCC1806, RPMI2650, HCT-15, HT-29 and SNU-16 tumor cells were maintained in vitro as a monolayer culture in medium supplemented with 10% heat inactivated fetal bovine serum at 37° C. in an […]. The tumor cells will be routinely subcultured twice weekly by trypsin-EDTA treatment. The cells growing in an exponential growth phase will be harvested and counted for tumor inoculation.
# (§3) Mouse was inoculated subcutaneously at the right flank with tumor cells for tumor development. The animals were randomized and treatment was started when the average tumor reaches certain volume for the efficacy study, the inoculating cell amounts and starting tumor size were shown as below in Table 9. The test article administration and the animal numbers in each group were shown in the experimental design in Table 10.
# (§4) All the procedures related to animal handling, care and the treatment in the study were performed according to the guidelines of the Association for Assessment and Accreditation of Laboratory Animal Care (AAALAC). At the time of routine monitoring, the animals were daily checked for any effects of tumor growth and treatments on normal behavior such as mobility, food and water consumption (by looking only), body weight gain/loss (body weights were measured every day), eye/hair matting and any other abnormal effect as stated in the protocol. Death and observed clinical signs were recorded on the basis of the numbers of animals within each subset.
# (§5) The major endpoint was to see if the tumor growth could be delayed or mice could be cured. Tumor size was measured three times weekly in two dimensions using a caliper, and the volume was expressed in mm^3 using the formula: V=0.5 a×b^2 where a and b are the long and short diameters of the tumor, respectively. The tumor size was then used for calculations of T/C value. The T/C value (in percent) is an indication of antitumor effectiveness; T and C are the mean volumes of the treated and control groups, respectively, on a given day.
# (§6) TGI was calculated for each group using the formula: TGI (%)=[1−(Ti−T0)/(Vi−V0)]×100; Ti is the average tumor volume of a treatment group on a given day, T0 is the average tumor volume of the treatment group on the day of treatment start, Vi is the average tumor volume of the vehicle control group on the same day with Ti, and V0 is the average tumor volume of the vehicle group on the day of treatment start.
# (§7) Summary statistics, including mean and the standard error of the mean (SEM), are provided for the tumor volume of each group at each time point.
# (§8) Statistical analysis of difference in tumor volume among the groups was conducted on the data obtained at the best therapeutic time point after the final dose.
# (§9) A one-way ANOVA was performed to compare tumor volume among groups, and when a significant F-statistics (a ratio of treatment variance to the error variance) was obtained, comparisons between groups were carried out with Games-Howell test. All data were analyzed using Prism. P<0.05 was considered to be statistically significant.
# [2] = tested on: HCT-15 xenograft; test: In vivo efficacy of BT1718 in HCT-15 xenograft; set-up: species or system Mus Musculus
# Description: as §1, §2, §3, §4, §5, §6, §7, §8, §9
structure (smiles),measurement,setting,value
COc1cc2cc(c1Cl)N(C)C(=O)C[C@H](OC(=O)[C@H](C)N(C)C(=O)CCSSC(C)CCC(=O)NCCC(=O)N(C)CC(=O)N(C)CC(=O)N(C)CC(=O)N(C)CC(=O)N(C)CC(=O)N(C)CC(=O)N(C)CC(=O)N(C)CC(=O)N(C)CC(=O)N(C)CC(=O)N[C@@H](C)C(=O)N[C@H]1CSCc3cc4cc(c3)CSC[C@H](NC(=O)[C@@H](C)NC(=O)[C@H](Cc3cccc5ccccc35)NC(=O)[C@H](CCC(=O)O)NC(=O)[C@H](CC(N)=O)NC(=O)[C@@H](C)NC1=O)C(=O)N[C@@H](CCC(=O)O)C(=O)N[C@@H](CC(=O)O)C(=O)N[C@@H](Cc1ccccc1)C(=O)N[C@@H](Cc1ccc(O)cc1)C(=O)N[C@@H](CC(=O)O)C(=O)N[C@@H](C(C)(C)C)C(=O)N[C@H](C(N)=O)CSC4)[C@]1(C)O[C@H]1[C@H](C)[C@@H]1C[C@@](O)(NC(=O)O1)[C@H](OC)/C=C/C=C(\C)C2 (stereo partly drawn) [BT1718] ({X1-βAla}-[Sar][Sar][Sar][Sar][Sar][Sar][Sar][Sar][Sar][Sar]AC[dA]NE[1Nal][dA]CEDFYD[Tle]C-NH2; linker 12-18-25 via TBMB (inferred)),tumor response,[1]; 10 mg/kg biw,"significant tumor inhibition effect, but didn't cause tumor regression"
same,Body Weight,"[1]; 1 mpk biw, day 0",21.8 ± 0.5 g
same,Tumor Volume,"[1]; 1 mpk biw, day 0",146 ± 5 mm^3
same,Body Weight,"[1]; 1 mpk biw, day 2",22.1 ± 0.6 g
same,Tumor Volume,"[1]; 1 mpk biw, day 2",159 ± 9 mm^3
same,Body Weight,"[1]; 1 mpk biw, day 4",22.1 ± 0.7 g
same,Tumor Volume,"[1]; 1 mpk biw, day 4",213 ± 23 mm^3
same,Body Weight,"[1]; 1 mpk biw, day 7",22.6 ± 0.5 g
same,Tumor Volume,"[1]; 1 mpk biw, day 7",362 ± 34 mm^3
same,Body Weight,"[1]; 1 mpk biw, day 9",22.8 ± 0.5 g
same,Tumor Volume,"[1]; 1 mpk biw, day 9",470 ± 68 mm^3
same,Body Weight,"[1]; 1 mpk biw, day 11",22.6 ± 0.6 g
same,Tumor Volume,"[1]; 1 mpk biw, day 11",614 ± 96 mm^3
same,Body Weight,"[1]; 1 mpk biw, day 14",23.1 ± 0.8 g
same,Tumor Volume,"[1]; 1 mpk biw, day 14",833 ± 126 mm^3
same,Body Weight,"[1]; 3 mpk biw, day 0",22.1 ± 0.7 g
same,Tumor Volume,"[1]; 3 mpk biw, day 0",147 ± 11 mm^3
same,Body Weight,"[1]; 3 mpk biw, day 2",21.9 ± 0.8 g
same,Tumor Volume,"[1]; 3 mpk biw, day 2",164 ± 20 mm^3
same,Body Weight,"[1]; 3 mpk biw, day 4",21.4 ± 0.6 g
same,Tumor Volume,"[1]; 3 mpk biw, day 4",220 ± 23 mm^3
same,Body Weight,"[1]; 3 mpk biw, day 7",21.9 ± 0.8 g
same,Tumor Volume,"[1]; 3 mpk biw, day 7",365 ± 10 mm^3
same,Body Weight,"[1]; 3 mpk biw, day 9",21.4 ± 0.7 g
same,Tumor Volume,"[1]; 3 mpk biw, day 9",447 ± 18 mm^3
same,Body Weight,"[1]; 3 mpk biw, day 11",20.7 ± 0.8 g
same,Tumor Volume,"[1]; 3 mpk biw, day 11",576 ± 19 mm^3
same,Body Weight,"[1]; 3 mpk biw, day 14",21.0 ± 0.7 g
same,Tumor Volume,"[1]; 3 mpk biw, day 14",724 ± 28 mm^3
same,Body Weight,"[1]; 10 mpk biw, day 0",22.0 ± 0.3 g
same,Tumor Volume,"[1]; 10 mpk biw, day 0",147 ± 7 mm^3
same,Body Weight,"[1]; 10 mpk biw, day 2",21.2 ± 0.1 g
same,Tumor Volume,"[1]; 10 mpk biw, day 2",151 ± 10 mm^3
same,Body Weight,"[1]; 10 mpk biw, day 4",20.6 ± 0.5 g
same,Tumor Volume,"[1]; 10 mpk biw, day 4",190 ± 25 mm^3
same,Body Weight,"[1]; 10 mpk biw, day 7",21.1 ± 0.4 g
same,Tumor Volume,"[1]; 10 mpk biw, day 7",198 ± 38 mm^3
same,Body Weight,"[1]; 10 mpk biw, day 9",19.9 ± 0.3 g
same,Tumor Volume,"[1]; 10 mpk biw, day 9",165 ± 42 mm^3
same,Body Weight,"[1]; 10 mpk biw, day 11",19.2 ± 0.3 g
same,Tumor Volume,"[1]; 10 mpk biw, day 11",155 ± 54 mm^3
same,Body Weight,"[1]; 10 mpk biw, day 14",19.6 ± 0.7 g
same,Tumor Volume,"[1]; 10 mpk biw, day 14",131 ± 49 mm^3
same,Best response at 10 mg/kg,"[1]; RPMI2650, 10 mg/kg",PR
same,TGI,"[1]; RPMI2650, 1 mpk, biw, day 14",4.5%
same,Tumor Volume,"[1]; RPMI2650, 1 mpk, biw, day 14",833 ± 126 mm^3
same,TGI,"[1]; RPMI2650, 3 mpk, biw, day 14",19.8%
same,Tumor Volume,"[1]; RPMI2650, 3 mpk, biw, day 14",724 ± 28 mm^3
same,TGI,"[1]; RPMI2650, 10 mpk, biw, day 14",102.1%
same,Tumor Volume,"[1]; RPMI2650, 10 mpk, biw, day 14",131 ± 49 mm^3
same,Minimally Effective Dose IV BIW,"[1]; RPMI2650, dose leading to tumor-stasis",10 mg/kg
same,Body Weight,"[2]; 1 mpk biw, day 0",22.2 ± 0.5 g
same,Tumor Volume,"[2]; 1 mpk biw, day 0",157 ± 6 mm^3
same,Body Weight,"[2]; 1 mpk biw, day 2",21.8 ± 0.3 g
same,Tumor Volume,"[2]; 1 mpk biw, day 2",174 ± 9 mm^3
same,Body Weight,"[2]; 1 mpk biw, day 4",21.6 ± 0.6 g
same,Tumor Volume,"[2]; 1 mpk biw, day 4",207 ± 14 mm^3
same,Body Weight,"[2]; 1 mpk biw, day 7",22.3 ± 0.5 g
same,Tumor Volume,"[2]; 1 mpk biw, day 7",385 ± 19 mm^3
same,Body Weight,"[2]; 1 mpk biw, day 9",21.9 ± 0.3 g
same,Tumor Volume,"[2]; 1 mpk biw, day 9",585 ± 26 mm^3
same,Body Weight,"[2]; 1 mpk biw, day 11",21.9 ± 0.5 g
same,Tumor Volume,"[2]; 1 mpk biw, day 11",937 ± 70 mm^3
same,Body Weight,"[2]; 1 mpk biw, day 14",22.1 ± 0.5 g
same,Tumor Volume,"[2]; 1 mpk biw, day 14",1238 ± 36 mm^3
same,Body Weight,"[2]; 3 mpk biw, day 0",21.6 ± 0.5 g
same,Tumor Volume,"[2]; 3 mpk biw, day 0",157 ± 6 mm^3
same,Body Weight,"[2]; 3 mpk biw, day 2",21.4 ± 0.2 g
same,Tumor Volume,"[2]; 3 mpk biw, day 2",140 ± 7 mm^3
same,Body Weight,"[2]; 3 mpk biw, day 4",21.6 ± 0.2 g
same,Tumor Volume,"[2]; 3 mpk biw, day 4",195 ± 26 mm^3
same,Body Weight,"[2]; 3 mpk biw, day 7",22.7 ± 0.4 g
same,Tumor Volume,"[2]; 3 mpk biw, day 7",389 ± 47 mm^3
same,Body Weight,"[2]; 3 mpk biw, day 9",22.2 ± 0.4 g
same,Tumor Volume,"[2]; 3 mpk biw, day 9",581 ± 54 mm^3
same,Body Weight,"[2]; 3 mpk biw, day 11",22.2 ± 0.5 g
same,Tumor Volume,"[2]; 3 mpk biw, day 11",901 ± 79 mm^3
same,Body Weight,"[2]; 3 mpk biw, day 14",22.3 ± 0.6 g
same,Tumor Volume,"[2]; 3 mpk biw, day 14",1180 ± 143 mm^3
same,Body Weight,"[2]; 10 mpk biw, day 0",22.2 ± 0.3 g
same,Tumor Volume,"[2]; 10 mpk biw, day 0",157 ± 11 mm^3
same,Body Weight,"[2]; 10 mpk biw, day 2",21.2 ± 0.2 g
same,Tumor Volume,"[2]; 10 mpk biw, day 2",130 ± 7 mm^3
same,Body Weight,"[2]; 10 mpk biw, day 4",20.2 ± 0.5 g
same,Tumor Volume,"[2]; 10 mpk biw, day 4",138 ± 14 mm^3
same,Body Weight,"[2]; 10 mpk biw, day 7",21.7 ± 0.3 g
same,Tumor Volume,"[2]; 10 mpk biw, day 7",265 ± 16 mm^3
same,Body Weight,"[2]; 10 mpk biw, day 9",19.9 ± 0.3 g
same,Tumor Volume,"[2]; 10 mpk biw, day 9",342 ± 47 mm^3
same,Body Weight,"[2]; 10 mpk biw, day 11",20.3 ± 0.7 g
same,Tumor Volume,"[2]; 10 mpk biw, day 11",562 ± 73 mm^3
same,Body Weight,"[2]; 10 mpk biw, day 14",20.8 ± 0.8 g
same,Tumor Volume,"[2]; 10 mpk biw, day 14",880 ± 89 mm^3
same,Best response at 10 mg/kg,"[2]; HCT-15, 10 mg/kg",Growth delay
same,TGI,"[2]; HCT-15, 1 mpk, biw, day 14",−0.9%
same,Tumor Volume,"[2]; HCT-15, 1 mpk, biw, day 14",1238 ± 36 mm^3
same,TGI,"[2]; HCT-15, 3 mpk, biw, day 14",4.6%
same,Tumor Volume,"[2]; HCT-15, 3 mpk, biw, day 14",1180 ± 143 mm^3
same,TGI,"[2]; HCT-15, 10 mpk, biw, day 14",32.5%
same,Tumor Volume,"[2]; HCT-15, 10 mpk, biw, day 14",880 ± 89 mm^3
same,Minimally Effective Dose IV BIW,"[2]; HCT-15, dose leading to tumor-stasis",>10 mg/kg
same,anti-tumor activity,"[2]; mouse, in vivo",did not show obvious anti-tumor activity
